Test results as given in patent publication US20230113037A1 (Bayer Aktiengesellschaft, priority 2019, published 2023).
Read-outs that look alike come from different tables or passages of the source.

Columns and labels:
[1] = target: T1, AHR (Homo sapiens, UniProt P35869); experiment: In vitro assay 1: antagonism in human cell line (AHR transactivation, firefly luciferase reporter, kynurenic acid prestimulated); type: cell-based; details: AHR Antagonism Human IC50 [M]
T1 construct: U87 MG glioblastoma cells (ATCC #HTB-14) endogenously expressing AHR; endogenous in cells; host or cells: U87 MG glioblastoma cells (ATCC #HTB-14)
T1 sequence (P35869 11-848): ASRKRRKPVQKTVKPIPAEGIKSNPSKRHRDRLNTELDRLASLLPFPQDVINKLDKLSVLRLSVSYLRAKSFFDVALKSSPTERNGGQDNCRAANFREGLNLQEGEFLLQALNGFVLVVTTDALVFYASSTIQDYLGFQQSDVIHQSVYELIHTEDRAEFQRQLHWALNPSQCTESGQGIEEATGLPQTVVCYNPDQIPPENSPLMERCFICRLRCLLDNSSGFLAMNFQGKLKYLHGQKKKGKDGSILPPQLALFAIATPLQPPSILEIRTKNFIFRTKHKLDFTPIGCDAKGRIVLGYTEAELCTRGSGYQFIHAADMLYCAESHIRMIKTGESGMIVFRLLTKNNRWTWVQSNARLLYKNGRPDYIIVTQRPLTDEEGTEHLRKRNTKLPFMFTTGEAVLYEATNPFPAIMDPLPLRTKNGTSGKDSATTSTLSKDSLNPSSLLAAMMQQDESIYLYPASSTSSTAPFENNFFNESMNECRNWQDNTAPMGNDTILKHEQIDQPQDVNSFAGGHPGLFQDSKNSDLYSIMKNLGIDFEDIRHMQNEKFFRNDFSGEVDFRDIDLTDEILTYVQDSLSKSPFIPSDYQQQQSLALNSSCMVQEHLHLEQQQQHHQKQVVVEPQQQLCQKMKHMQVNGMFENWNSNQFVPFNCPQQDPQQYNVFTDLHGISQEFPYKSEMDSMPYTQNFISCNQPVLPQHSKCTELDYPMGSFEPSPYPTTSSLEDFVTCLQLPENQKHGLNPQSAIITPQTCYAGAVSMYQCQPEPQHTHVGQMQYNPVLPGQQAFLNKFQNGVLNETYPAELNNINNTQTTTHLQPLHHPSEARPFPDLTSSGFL
Outline: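 U87 MG glioblastoma cells with endogenous AHR, stably carrying a DRE-driven firefly luciferase reporter and constitutive Renilla reporter, prestimulated with kynurenic acid before compound addition. Firefly and Renilla read by dual luciferase; Renilla flags toxicity; normalized to controls (150 μM kynurenic acid + 5 μM staurosporine as full inhibition); repeat values averaged or median.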

[2] = target: T2, AHR (Mus musculus, UniProt P30561); experiment: In vitro assay 3: antagonism in mouse cell line (AHR transactivation, firefly luciferase reporter, kynurenic acid prestimulated); type: cell-based; details: 200 μM kynurenic acid, 20 hours, read-out: AHR Antagonism Mouse IC50
T2 sequence (P30561 1-848 P471L/N533S/M589L): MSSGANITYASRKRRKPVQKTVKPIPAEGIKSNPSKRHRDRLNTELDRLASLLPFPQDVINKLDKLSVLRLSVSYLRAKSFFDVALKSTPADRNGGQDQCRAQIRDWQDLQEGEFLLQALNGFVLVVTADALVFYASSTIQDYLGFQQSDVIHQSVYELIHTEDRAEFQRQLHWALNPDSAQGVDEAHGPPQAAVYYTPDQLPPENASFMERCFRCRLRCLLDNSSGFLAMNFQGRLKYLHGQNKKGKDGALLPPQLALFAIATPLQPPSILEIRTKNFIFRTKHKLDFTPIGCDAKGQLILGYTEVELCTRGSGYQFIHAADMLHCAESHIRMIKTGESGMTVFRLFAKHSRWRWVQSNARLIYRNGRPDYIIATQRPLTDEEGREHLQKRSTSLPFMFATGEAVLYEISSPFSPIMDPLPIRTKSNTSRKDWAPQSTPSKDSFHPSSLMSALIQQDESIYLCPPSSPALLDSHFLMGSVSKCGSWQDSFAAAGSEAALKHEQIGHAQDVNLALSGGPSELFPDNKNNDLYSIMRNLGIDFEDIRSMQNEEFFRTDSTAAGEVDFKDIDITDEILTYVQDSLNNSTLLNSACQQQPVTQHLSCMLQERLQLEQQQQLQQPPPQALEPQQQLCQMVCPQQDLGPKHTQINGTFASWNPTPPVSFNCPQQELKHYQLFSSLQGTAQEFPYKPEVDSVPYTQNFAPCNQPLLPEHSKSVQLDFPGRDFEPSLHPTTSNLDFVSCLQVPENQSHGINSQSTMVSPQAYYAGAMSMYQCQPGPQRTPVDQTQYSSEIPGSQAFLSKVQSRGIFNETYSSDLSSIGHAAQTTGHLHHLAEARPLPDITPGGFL
Outline: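 Mouse cells stably carrying a DRE-driven AHR-inducible firefly luciferase reporter were prestimulated with the endogenous agonist kynurenic acid before compound addition. Luciferase read by SteadyGlo; cells without kynurenic acid served as full-inhibition control, with normalization to positive and negative controls. Repeat tests reported as mean or median.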

[3] = Hepa 1c1c7 cells, firefly luciferase reporter

IC50 [1] [M] | IC50 ([2]; mouse Hepa 1c1c7 cells) [nM] | IC50 ([1]; firefly luciferase reporter) [M] | IC50 [2, 3] [nM] | Structure (SMILES)
3.1e-07 | 246 |  |  | Cc1ccc2nc(N[C@@H]3CCCCNC3=O)n3nc(-c4cn(C)nc4C(F)(F)F)nc3c2c1 [Example 407, (3R)-3-({9-methyl-2-[1-methyl-3-(trifluoromethyl)-1H-pyrazol-4-yl][1,2,4]triazolo[1,5-c]quinazolin-5-yl}amino)azepan-2-one]
4.31e-09 | 1.9 |  |  | O=C1NCCCC[C@H]1Nc1nc2ccccc2c2nc(-c3ccc(Br)o3)nn12 [Example 537, (3R)-3-{[2-(5-bromofuran-2-yl)[1,2,4]triazolo[1,5-c]quinazolin-5-yl]amino}azepan-2-one]
5.55e-08 | 26.1 |  |  | COc1cccc(-c2nc3c4ccccc4nc(NC4CCN(C)C4=O)n3n2)c1 (single isomer, unassigned) [Example 122, 3-{[2-(3-methoxyphenyl)[1,2,4]triazolo[1,5-c]quinazolin-5-yl]amino}-1-methylpyrrolidin-2-one]
3.86e-07 | 8.93 |  |  | O=C1NCCNC[C@H]1Nc1nc2ccccc2c2nc(-c3cccc(Cl)c3Cl)nn12 [Example 263, (6R)-6-{[2-(2,3-dichlorophenyl)[1,2,4]triazolo[1,5-c]quinazolin-5-yl]amino}-1,4-diazepan-5-one]
2.04e-08 | 12.2 |  |  | CCCCNC(=O)[C@H](C)Nc1nc2ccccc2c2nc(-c3ccc(Cl)cc3OC(F)(F)F)nn12 [Example 521, N-butyl-N^2-{2-[4-chloro-2-(trifluoromethoxy)phenyl][1,2,4]triazolo[1,5-c]quinazolin-5-yl}alaninamide]
> 2e-05 | 8570 |  |  | CC[C@H](Nc1nc2ccccc2c2nc(-c3ccccc3S(C)(=O)=O)nn12)C(N)=O [Example 450, (2S)-2-({2-[2-(methanesulfonyl)phenyl][1,2,4]triazolo[1,5-c]quinazolin-5-yl}amino)butanamide]
7.84e-10 | 0.669 |  |  | O=C1NCCCC[C@H]1Nc1nc2c(C(F)(F)F)cccc2c2nc(-c3cnn(C(F)F)c3)nn12 [Example 736, (3R)-3-({2-[1-(difluoromethyl)-1H-pyrazol-4-yl]-7-(trifluoromethyl)[1,2,4]triazolo[1,5-c]quinazolin-5-yl}amino)azepan-2-one]
7.6e-10 | 1.07 |  |  | CCOc1ccc(-c2nc3c4ccccc4nc(N[C@@H]4CCCCNC4=O)n3n2)cc1 [Example 616, (3R)-3-{[2-(4-ethoxyphenyl)[1,2,4]triazolo[1,5-c]quinazolin-5-yl]amino}azepan-2-one]
5.14e-09 | 10.4 |  |  | N#Cc1ccc(-c2nc3c4cccc(Br)c4nc(N[C@H]4CCCCNC4=O)n3n2)cc1 [Example 559, 4-(7-bromo-5-{[(3S)-2-oxoazepan-3-yl]amino}[1,2,4]triazolo[1,5-c]quinazolin-2-yl)benzonitrile]
2.75e-06 | 73.3 |  |  | COc1cccc(-c2nc3c4ccccc4nc(NC4CNCCNC4=O)n3n2)c1 (single isomer, unassigned) [Example 116, 6-{[2-(3-methoxyphenyl)[1,2,4]triazolo[1,5-c]quinazolin-5-yl]amino}-1,4-diazepan-5-one]
 |  | 2.88e-09 | 4.79 | COc1ccc(-c2nc3c4cccc(Br)c4nc(N[C@H](C)C(=O)N4C[C@@H]5C[C@H]4CN5C)n3n2)cc1 [Example 901, (2R)-2-{[7-bromo-2-(4-methoxyphenyl)[1,2,4]triazolo[1,5-c]quinazolin-5-yl]amino}-1-[(1S,4S)-5-methyl-2,5-diazabicyclo[2.2.1]heptan-2-yl]propan-1-one]
 |  | 1.19e-08 | 22.5 | CCSc1cccc2c1nc(N[C@@H]1CNCCNC1=O)n1nc(-c3ccc(OC)cc3)nc21 [Example 939, (6R)-6-{[7-(ethylsulfanyl)-2-(4-methoxyphenyl)[1,2,4]triazolo[1,5-c]quinazolin-5-yl]amino}-1,4-diazepan-5-one]
2.28e-07 | 11.1 |  |  | CCC[C@@H](Nc1nc2ccccc2c2nc(-c3cc(F)ccc3OC(F)(F)F)nn12)C(=O)NC [Example 494, N^2-{2-[5-fluoro-2-(trifluoromethoxy)phenyl][1,2,4]triazolo[1,5-c]quinazolin-5-yl}-N-methyl-D-norvalinamide]
2.26e-08 | 4.04 |  |  | O=C1NCCCC[C@H]1Nc1nc2cccc(C(F)(F)F)c2c2nc(-c3ccc(F)cc3)nn12 [Example 174, (3R)-3-{[2-(4-fluorophenyl)-10-(trifluoromethyl)[1,2,4]triazolo[1,5-c]quinazolin-5-yl]amino}azepan-2-one]
6.84e-09 | 23.9 |  |  | Cn1cc(-c2nc3c4cccc(C(F)(F)F)c4nc(N[C@@H]4CNCCNC4=O)n3n2)cn1 [Example 425, (6R)-6-{[2-(1-methyl-1H-pyrazol-4-yl)-7-(trifluoromethyl)[1,2,4]triazolo[1,5-c]quinazolin-5-yl]amino}-1,4-diazepan-5-one]
 |  | 7.23e-10 | 1.68 | CC(C)n1cc(-c2nc3c4cccc(Br)c4nc(N[C@@H]4CCCCNC4=O)n3n2)cn1 [Example 822, (3R)-3-({7-bromo-2-[1-(propan-2-yl)-1H-pyrazol-4-yl][1,2,4]triazolo[1,5-c]quinazolin-5-yl}amino)azepan-2-one]
1.11e-06 | 2220 |  |  | Cn1cc(-c2nc3c4ccccc4nc(NC4CCNC4=O)n3n2)cn1 (single isomer, unassigned) [Example 18, 3-{[2-(1-methyl-1H-pyrazol-4-yl)[1,2,4]triazolo[1,5-c]quinazolin-5-yl]amino}pyrrolidin-2-one]
2.23e-08 | 25.5 |  |  | COc1cccc(-c2nc3c4cc(F)ccc4nc(NC4CCNC4=O)n3n2)c1 (centres unmarked) [Example 162, 3-{[9-fluoro-2-(3-methoxyphenyl)[1,2,4]triazolo[1,5-c]quinazolin-5-yl]amino}pyrrolidin-2-one]
1.85e-07 | 13.6 |  |  | CN(C)c1cccc(-c2nc3c4ccccc4nc(N[C@@H]4CNCCNC4=O)n3n2)c1 [Example 408, (6R)-6-({2-[3-(dimethylamino)phenyl][1,2,4]triazolo[1,5-c]quinazolin-5-yl}amino)-1,4-diazepan-5-one]
1.73e-08 | 21 |  |  | CSc1cccc(-c2nc3c4ccccc4nc(N[C@@H]4CCCCNC4=O)n3n2)c1 [Example 449, (3R)-3-({2-[3-(methylsulfanyl)phenyl][1,2,4]triazolo[1,5-c]quinazolin-5-yl}amino)azepan-2-one]
3.23e-09 | 8.97 |  |  | CC[C@@H](Nc1nc2c(Br)cccc2c2nc(-c3cnn(C)c3)nn12)C(N)=O [Example 696, (2R)-2-{[7-bromo-2-(1-methyl-1H-pyrazol-4-yl)[1,2,4]triazolo[1,5-c]quinazolin-5-yl]amino}butanamide]
6.81e-09 | 2.69 |  |  | O=C1NCCCC[C@H]1Nc1nc2ccccc2c2nc(-c3cnn(CC4CC4)c3)nn12 [Example 602, (3R)-3-({2-[1-(cyclopropylmethyl)-1H-pyrazol-4-yl][1,2,4]triazolo[1,5-c]quinazolin-5-yl}amino)azepan-2-one]
